# Positions of bridges follow the written chain, without caps; N, C: chain ends. Non-standard residues stand in square brackets, D forms with d. Residues, ends and D or L forms follow the SMILES beside them. Ala(cPent) = N[C@@H](CC1CCCC1)C(=O)O; Orn(iPr) = CC(C)NCCC[C@H](N)C(=O)O; Cha = N[C@@H](CC1CCCCC1)C(=O)O; Orn = NCCC[C@H](N)C(=O)O; Dab = NCC[C@H](N)C(=O)O; Ac4c = NC1(C(=O)O)CCC1
# Molecular target: T1, hV1a receptor (Homo sapiens, UniProt P37288)
# T1 construct: expressed in transfected cells; host or cells: HEK-293
# T1 sequence (P37288 whole entry): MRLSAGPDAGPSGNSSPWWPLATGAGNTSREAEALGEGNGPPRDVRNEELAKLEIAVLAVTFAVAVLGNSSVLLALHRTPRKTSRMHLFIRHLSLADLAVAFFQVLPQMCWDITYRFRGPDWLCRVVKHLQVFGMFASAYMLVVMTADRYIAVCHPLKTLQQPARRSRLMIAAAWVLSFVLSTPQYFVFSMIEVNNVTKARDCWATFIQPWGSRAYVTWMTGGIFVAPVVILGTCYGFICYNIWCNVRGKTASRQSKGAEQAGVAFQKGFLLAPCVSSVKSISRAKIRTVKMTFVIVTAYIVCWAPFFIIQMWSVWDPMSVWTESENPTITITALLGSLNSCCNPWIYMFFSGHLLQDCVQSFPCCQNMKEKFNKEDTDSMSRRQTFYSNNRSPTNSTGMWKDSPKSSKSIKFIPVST
# Assay: In vitro receptor assay: transcriptional reporter (luciferase) assay of agonist activity in HEK-293 cells transiently transfected with hV1a receptor
# Type: cell-based
# Conditions: hV1a receptor in HEK-293 cells, 5 hours exposure, geometric mean of at least three independent experiments, nanomol/L, read-out: EC50 (median effective concentration)
# Protocol: Agonist activity of compounds on the hV1a receptor was determined in a transcriptional reporter assay by transiently transfecting a hV1a receptor expression DNA into HEK-293 cells in concert with a reporter DNA containing intracellular calcium responsive promoter elements regulating expression of firefly luciferase. See Boss, V., Talpade, D. J., Murphy, T. J. J. Biol. Chem. 1996, May 3; 271(18), 10429-10432 for further guidance on this assay.
# The EC50 value given is the geometric mean expressed in nanomol/L (nM).
row,EC50,SMILES
1,0.75 nM,"CC[C@H](C)[C@@H]1NC(=O)[C@H](CC2CCCCC2)NC(=O)[C@@H](N)CSSC[C@@H](C(=O)N2CCC[C@H]2C(=O)N[C@@H](CCCNC(C)C)C(=O)NCC(N)=O)NC(=O)[C@H](CC(N)=O)NC(=O)[C@H](CC(N)=O)NC1=O [compound 4, [Cha^2, Asn^4, Orn(i-Pr)^6]VT] (H-C[Cha]INNCP[Orn(iPr)]G-NH2; disulfide 1-6)"
2,0.94 nM,"CC[C@H](C)[C@@H]1NC(=O)C2(CCC2)NC(=O)[C@@H](N)CSSC[C@@H](C(=O)N2CCC[C@H]2C(=O)N[C@@H](CCN)C(=O)NCC(N)=O)NC(=O)[C@H](CC(N)=O)NC(=O)[C@H](CCC(N)=O)NC1=O [compound 3, [AcBuc^2, Dbu^8]VT] (H-C[Ac4c]IQNCP[Dab]G-NH2; disulfide 1-6)"
3,17.8 nM,CC[C@H](C)[C@@H]1NC(=O)[C@H](CC2CCCC2)NC(=O)[C@@H](N)CSSC[C@@H](C(=O)N2CCC[C@H]2C(=O)N[C@@H](CCN)C(=O)NCC(N)=O)NC(=O)[C@H](CC(N)=O)NC(=O)[C@H](CC(N)=O)NC1=O [compound 10] (H-C[Ala(cPent)]INNCP[Dab]G-NH2; disulfide 1-6)
4,9.93 nM,CC[C@H](C)[C@@H]1NC(=O)[C@H](CC2CCCCC2)NC(=O)[C@@H](N)CSSC[C@@H](C(=O)N2CCC[C@H]2C(=O)N[C@@H](CCCN)C(=O)NCC(N)=O)NC(=O)[C@H](CC(N)=O)NC(=O)[C@H](CC(N)=O)NC1=O [compound 11] (H-C[Cha]INNCP[Orn]G-NH2; disulfide 1-6)
5,0.8 nM,CC[C@H](C)[C@@H]1NC(=O)[C@H](CC2CCCC2)NC(=O)[C@@H](N)CSSC[C@@H](C(=O)N2CCC[C@H]2C(=O)N[C@@H](CCN)C(=O)NCC(N)=O)NC(=O)[C@H](CC(N)=O)NC(=O)[C@H](CCC(N)=O)NC1=O [compound 2] (H-C[Ala(cPent)]IQNCP[Dab]G-NH2; disulfide 1-6)
6,0.27 nM,CC[C@H](C)[C@@H]1NC(=O)[C@H](CC2CCCCC2)NC(=O)[C@@H](N)CSSC[C@@H](C(=O)N2CCC[C@H]2C(=O)N[C@@H](CCN)C(=O)NCC(N)=O)NC(=O)[C@H](CC(N)=O)NC(=O)[C@H](CCC(N)=O)NC1=O [compound 1] (H-C[Cha]IQNCP[Dab]G-NH2; disulfide 1-6; N-terminus and C-terminus assumed)

row,SMILES,EC50
1,"NCCCC[C@H](NC(=O)[C@@H]1CCCN1C(=O)[C@@H]1CSSC[C@H](NC(=O)CNC(=O)CNC(=O)CN)C(=O)N[C@@H](Cc2ccc(O)cc2)C(=O)N[C@@H](Cc2ccccc2)C(=O)N[C@@H](CCC(N)=O)C(=O)N[C@@H](CC(N)=O)C(=O)N1)C(=O)NCC(N)=O [terlipressin, reference compound] (H-GGGCYFQNCPKG-NH2; disulfide 4-9)",82.1 nM

# Source: patent publication US8883965B2, “Compounds” (Ferring B.V., priority 2006, dated 2014)
